Source: article PMC11637823, “Evaluating the Antimicrobial Efficacy of a Designed Synthetic Peptide against Pathogenic Bacteria” (Journal of Microbiology and Biotechnology, 2024)
Converted amounts (≈) assume the structure as drawn. Ends that are not written are not given here.

Experiments:
ESKAPE pathogens = details: at one-third of the MIC; cited from earlier work
From the text: A. baumannii, known for colonising medical equipment surfaces like urinary catheters to form a biofilm, contributes to recurrent and persistent patient infections. WLBU-2, a synthetic cationic peptide, and LL-37, a naturally occurring antimicrobial peptide, underwent testing for efficacy against a range ...

E. coli = test system: E. coli; set-up: method as in PMID 16352849; details: cited from earlier work
[1] = test system: A. baumannii biofilm (IC 003321216); test: Mature biofilm eradication, MTT viability; details: ciprofloxacin alone
[2] = test system: Escherichia coli KPC+ 001812446; test: microbe, parasite or virus in culture
Description: (§1) Clinical and Laboratory Standards Institute (CLSI) guidelines performed the peptide MIC assays. Bacterial colonies were isolated on the Muller Hinton Agar (MHA) and plated at a final concentration of 1.5 × 10^5 CFU/ml.
(§2) For the results, bacterial growth was determined by visual inspection and confirmed by absorbance measurement at 595 nm after 24 h of incubation using a Multiskan GO microplate reader (Thermo Fisher Scientific, USA). […] The rest of the assay was conducted as previously described.
(§3) The MBC was determined based on the MIC results. Three replicates of 10 μl were extracted from the microplate wells, placed on MHA, and then kept in an incubator at 37°C for 24 h. […] All experiments were performed in triplicate.

[3] = test system: Staphylococcus aureus (MRSA) ATCC 33591; test: microbe, parasite or virus in culture
Description: as §1, §2, §3

[4] = test system: Staphylococcus saprophyticus ATCC 29970; test: microbe, parasite or virus in culture
Description: as §1, §2, §3

[5] = test system: Pseudomonas aeruginosa ATCC 27853; test: microbe, parasite or virus in culture
Description: as §1, §2, §3

[6] = test system: Staphylococcus aureus (MRSA) ATCC 43300; test: microbe, parasite or virus in culture
Description: as §1, §2, §3

Gram-negative bacteria = test: MIC and MBC assays, span over strains; type: cell-based
Description: as §1, §2, §3

[7] = test system: RAW 264.7 murine macrophages; details: 64 µM
Description: Cellular viability. RAW 264.7 murine macrophages' cellular viability was evaluated in the presence of the RK8 peptide, according to the method proposed by Mosmann [18], using the enzymatic reduction of the reagent 3-(4,5-dimethylthiazol-2-yl bromide) -2,5-diphenyltetrazolium (MTT).
After detaching from the culture bottle, their density was determined, and they were seeded in a 96-well microplate at a density of 6 × 10^3 cells per well. After being placed in microplates, the cells were incubated for 24 h. The culture medium was replaced with a DMEM culture medium lacking SFB supplementation. Instead, it contained a serial dilution of RK8 ranging from 1 to 64 μM. After 24 h, the medium containing RK8 was removed and replaced with 100 μl of DMEM medium containing MTT 0.5 mg/ml. After four hours of incubation, the medium was removed again, and the reduced formazan crystals were resuspended with the addition of 100 μl of DMSO. Then, the absorbance of the wells was determined at 630 nm in a Varioskan microplate reader (Thermo Fisher Scientific). Three independent experiments were performed in triplicate. Cell viability was calculated from the following formula:
Cell viability (%) = (AbsSample÷AbsNegative control) × 100

human erythrocytes = type: cell-based; details: 100 µM
Description: Hemolytic activity. As hemolysis is an effect widely observed among antimicrobial peptides, we investigated the RK8 peptide hemolytic activity based on the protocol proposed by Uggerhøj et al. using erythrocytes. The blood sample (1 ml) was washed three times with 3 ml of saline solution through centrifugation cycles of 8 min at 1,380 ×g to secure a concentrated solution of erythrocytes. […] The samples were incubated for 60 min at 37°C and sequentially centrifuged for 10 min at 2,455 ×g. Subsequently, 100 μl of the supernatant was transferred to 96-well microplate wells in triplicate. The free haemoglobin content was determined at 414 nm on a Multiskan GO microplate reader (Thermo Fisher Scientific).

[8] = test system: Acinetobacter baumannii IC 003321216; details: IC 003321216, 24 h
Description: as §1, §2, §3

[9] = test system: Klebsiella pneumoniae ATCC 700603; details: ATCC 700603, 24 h
Description: as §1, §2, §3

[10] = test system: Acinetobacter baumannii ATCC 19906; details: ATCC 19906, 24 h
Description: as §1, §2, §3

[11] = test system: Escherichia coli ATCC 35218; details: ATCC 35218, 24 h
Description: as §1, §2, §3

in vitro = test: in vitro
Description: The mixture was maintained at 30°C. Aliquots of 150 μl were collected after 0, 15, 30, 45, 60, and 120 min, mixed with ten μl of Trifluoroacetic Acid (TFA) and centrifuged at 14 000 rpm at 4°C for 10 min [19]. High-Performance Liquid Chromatography (HPLC) monitored the stability of the peptide using the C-18 reversed-phase hydrophobic column (μ Bondapak C18, 3.9 × 300 mm, Waters, USA) at 25°C. The peptide's remaining percentage during degradation kinetics was calculated by integrating the peak area corresponding to the RK8 peptide, injecting 40 μl of the incubation product in triplicate. The assay was conducted in an Ultimate 3000 chromatograph (Thermo Fisher Scientific). A separation program of 60 min at 1 ml/min was implemented, with monitoring of the 220 and 280 nm wavelengths. Thermo Scientific's ChromeleonTM Chromatography Data System (CDS) 7 software determined the area under the curve.

[12] = test system: E. coli, P. aeruginosa, and A. baumanii; details: 24 h
[13] = Staphylococcus saprophyticus, ATCC29970, 24 h

## LL-37
ESKAPE pathogens
  inhibition of biofilm formation: 90%

## Indolicidin
E. coli
  MIC: 10 µM

## O=C(O)c1cn(C2CC2)c2cc(N3CCNCC3)c(F)cc2c1=O [Ciprofloxacin, ciprofloxacin]
[1]
  impact on biofilm: no impact

## CN[C@H](CC(C)C)C(=O)N[C@H]1C(=O)N[C@@H](CC(N)=O)C(=O)N[C@H]2C(=O)N[C@H]3C(=O)N[C@H](C(=O)N[C@H](C(=O)O)c4cc(O)cc(O)c4-c4cc3ccc4O)[C@H](O)c3ccc(c(Cl)c3)Oc3cc2cc(c3O[C@@H]2O[C@H](CO)[C@@H](O)[C@H](O)[C@H]2O[C@H]2C[C@](C)(N)[C@H](O)[C@H](C)O2)Oc2ccc(cc2Cl)[C@H]1O [Vancomycin, vancomycin, reference compound]
[2]; Escherichia coli, 24 h
  MBC: 0.5 µM (≈ 0.725 µg/mL)
  MIC: 0.5 µM (≈ 0.725 µg/mL)
[3]; Staphylococcus aureus, 24 h
  MBC: 1 µM (≈ 1.45 µg/mL)
[4]; 10 μl from MIC wells on MHA, 37°C, 24 h, triplicate
  MBC: one
[4]; [13]
  MBC: 1 µM (≈ 1.45 µg/mL)
  MIC: 0.5 µM (≈ 0.725 µg/mL)
[5]; Pseudomonas aeruginosa, ATCC27853, 24 h
  MBC: 1 µM (≈ 1.45 µg/mL)
[6]; Staphylococcus aureus, ATCC43300|MRSA, 24 h, 10 μl from MIC wells on MHA, 37°C, triplicate
  MBC: 1 µM (≈ 1.45 µg/mL)
Gram-negative bacteria; read-out: MBC values
  MBC: 0.5 to 4 µM (≈ 0.725 to 5.8 µg/mL)
Gram-negative bacteria; span over Gram-negative strains, 1.5 × 10^5 CFU per ml
  MIC: 0.5 to 8 µM (≈ 0.725 to 11.6 µg/mL)

## RKWRKWWK [RK8]
[7]
  cell viability: 90.1%
[2]; KPC+ 001812446, 24 h
  MBC: 8 µM
  MIC: 16 µM
[3]; ATCC 33591, 24 h
  MBC: 8 µM
  MIC: 8 µM
[4]; ATCC 29970, 24 h
  MBC: 64 µM
  MIC: >64 µM
[5]; ATCC 27853, 24 h
  MBC: 64 µM
[6]; ATCC 43300, 24 h
  MBC: 8 µM
  MIC: 16 µM
Human erythrocytes
  hemolysis: approximately 4.6%
[8]
  MBC: 4 µM
  MIC: 64 µM
[9]
  MBC: 64 µM
  MIC: >64 µM
[10]
  MBC: 4 µM
  MIC: >64 µM
[11]
  MBC: 2 µM
  MIC: >64 µM
In vitro; 25% FBS in ultrapure water, 30°C, 120 min, RP-HPLC C18 peak area, triplicate
  decrease in the overall area: 40%
In vitro; 25% FBS in ultrapure water, 30°C, first 45 min, RP-HPLC C18 peak area, triplicate
  area under the RK8 peak (intact peptide): unaffected
In vitro; 25% fetal bovine serum (FBS)
  metabolised at 1 h, 0.385 mg/ml: 12.2%
  remaining at 2 h, 0.385 mg/ml: ~60%
[12]
  concentrations with bactericidal effect (consistent MIC and MBC values): 0.5 to 4 µM
